Assay results as given in patent US20260041781A1, “NOVEL GLUCOCORTICOID RECEPTOR AGONISTS AND IMMUNOCONJUGATES THEREOF” (priority 2022, published 2026).

These molecules were tested against T1, GR LBD (ligand binding domain) (Homo sapiens, UniProt P04150) (assay: GR Reporter Assay (pBind assay, pG5luc luciferase reporter, agonist mode)). Conditions: HEK293 cells transiently transfected with pG5luc and GR LBD.
T1 construct: expressed in transfected cells; host or cells: HEK293
T1 sequence (P04150 524-758 limits assumed): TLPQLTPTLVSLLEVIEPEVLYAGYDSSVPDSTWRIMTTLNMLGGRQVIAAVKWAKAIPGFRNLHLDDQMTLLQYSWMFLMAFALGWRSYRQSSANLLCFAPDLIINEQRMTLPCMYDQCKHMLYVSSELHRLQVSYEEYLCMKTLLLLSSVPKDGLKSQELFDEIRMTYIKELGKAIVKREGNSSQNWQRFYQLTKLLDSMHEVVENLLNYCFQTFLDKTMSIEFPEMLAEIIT
Format: cell-based
Description: The assay is a pBind assay following the general principle outlined below. 2×10^4 HEK293 cells/96-well are transiently transfected with pG5luc and GR LBD 1:1 at 50 ng/well. GR LBD (ligand binding domain) is a […] fusion protein (used to yeast GAL4) and upon binding to the test article will bind the luciferase reporter and activate transcription of luciferase. Upon addition of a substrate, the luciferase activity can be measured and corresponds to the activity of the test article. The assay is performed in agonist mode.

Row | EC50 [nM] | SMILES
1 | > 30 | C[C@@H]1C[C@H]2[C@@H]3C[C@H](F)C4=CC(=O)C=C[C@]4(C)[C@@]3(F)[C@@H](O)C[C@]2(C)[C@@]1(OC(=O)c1cccc(N)c1)C(=O)N1CCOCC1 [Compound 15]
2 | > 30 | C[C@@H]1C[C@H]2[C@@H]3C[C@H](F)C4=CC(=O)C=C[C@]4(C)[C@@]3(F)[C@@H](O)C[C@]2(C)[C@@]1(OC(=O)c1cccc(N)c1)C(=O)N1CC(CO)C1 [Compound 17]
3 | > 30 | C[C@@H]1C[C@H]2[C@@H]3C[C@H](F)C4=CC(=O)C=C[C@]4(C)[C@@]3(F)[C@@H](O)C[C@]2(C)[C@@]1(OC(=O)c1cccc(N)c1)C(=O)N(C)CC(O)CO (stereo partly drawn) [Compound 20, (6S,8S,9R,10S,11S,13S,14S,16R,17R)-17-((2,3-dihydroxypropyl)(methyl)carbamoyl)-6,9-difluoro-11-hydroxy-10,13,16-trimethyl-3-oxo-6,7,8,9,10,11,12,13,14,15,16,17-dodecahydro-3H-cyclopenta[a]phenanthren-17-yl 3-aminobenzoate]
4 | > 30 | C[C@@H]1C[C@H]2[C@@H]3C[C@H](F)C4=CC(=O)C=C[C@]4(C)[C@@]3(F)[C@@H](O)C[C@]2(C)[C@@]1(OC(=O)c1cccc(N)c1)C(=O)N(C)CCO [Compound 18]
5 | > 30 | C[C@@H]1C[C@H]2[C@@H]3C[C@H](F)C4=CC(=O)C=C[C@]4(C)[C@@]3(F)[C@@H](O)C[C@]2(C)[C@@]1(OC(=O)c1cccc(N)c1)C(=O)NCCO [Compound 19]
6 | < 5 | C[C@@H]1C[C@H]2[C@@H]3C[C@H](F)C4=CC(=O)C=C[C@]4(C)[C@@]3(F)[C@@H](O)C[C@]2(C)[C@@]1(OC(=O)c1ccc(N)cc1)C(=O)N(C)C [Compound 9]
7 | < 5 | C[C@@H]1C[C@H]2[C@@H]3C[C@H](F)C4=CC(=O)C=C[C@]4(C)[C@@]3(F)[C@@H](O)C[C@]2(C)[C@@]1(OC(=O)c1cccc(N)c1)C(=O)N(C)C [Compound 8]
8 | > 30 | CNC(=O)[C@@]1(OC(=O)c2cccc(N)c2)[C@H](C)C[C@H]2[C@@H]3C[C@H](F)C4=CC(=O)C=C[C@]4(C)[C@@]3(F)[C@@H](O)C[C@@]21C [Compound 10]
9 | < 5 | C[C@@H]1C[C@H]2[C@@H]3CCC4=CC(=O)C=C[C@]4(C)[C@@]3(F)[C@@H](O)C[C@]2(C)[C@@]1(OC(=O)c1cccc(N)c1)C(=O)N(C)C [Compound 12]
10 | > 30 | C[C@@H]1C[C@H]2[C@@H]3C[C@H](F)C4=CC(=O)C=C[C@]4(C)[C@@]3(F)[C@@H](O)C[C@]2(C)[C@@]1(OC(=O)c1cccc(N)c1)C(=O)N1CCCC1 [Compound 14]

More lines, now with the values behind:

Row | SMILES | EC50 [nM]
11 | C[C@]12C=CC(=O)C=C1CC[C@@H]1[C@@H]2[C@@H](O)C[C@@]2(C)[C@H]1C[C@H]1O[C@@H](c3ccc(Cc4cccc(N)c4)cc3)O[C@]12C(=O)CF [Compound 25] | < 5
12 | C[C@@H]1C[C@H]2[C@@H]3C[C@H](F)C4=CC(=O)C=C[C@]4(C)[C@@]3(F)[C@@H](O)C[C@]2(C)[C@@]1(OC(=O)c1ccco1)C(=O)NCCOc1ccc(N)cc1 [Compound 7] | < 5
13 | C[C@]12C=CC(=O)C=C1CC[C@H]1[C@@H]3C[C@H]4O[C@@H](c5cccc(N)c5)O[C@@]4(C(=O)CF)[C@@]3(C)C[C@H](O)[C@@]12F [Compound 3] | < 5
14 | CNC(=O)[C@@]1(OC(=O)c2ccc(N)cc2)[C@H](C)C[C@H]2[C@@H]3C[C@H](F)C4=CC(=O)C=C[C@]4(C)[C@@]3(F)[C@@H](O)C[C@@]21C [Compound 11] | > 30
15 | C[C@]12C=CC(=O)C=C1CC[C@H]1[C@@H]3C[C@H]4O[C@@H](c5cccc(N)c5)O[C@@]4(C(=O)CCl)[C@@]3(C)C[C@H](O)[C@@]12F [Compound 2] | < 5
16 | CN(C)C(=O)[C@@]12O[C@H](c3cccc(Cc4cccc(N)c4)c3)O[C@@H]1C[C@H]1[C@@H]3CCC4=CC(=O)C=C[C@]4(C)[C@H]3[C@@H](O)C[C@@]12C [Compound 23] | < 5
17 | C[C@]12C=CC(=O)C=C1CC[C@H]1[C@@H]3C[C@H]4O[C@H](c5cccc(N)c5)O[C@@]4(C(=O)CCl)[C@@]3(C)C[C@H](O)[C@@]12F [Compound 1] | < 5
